Measured values: patent US9113629B2, “4-amino-6-(4-substituted-phenyl)-picolinates and 6-amino-2-(4-substituted-phenyl)-pyrimidine-4-carboxylates and their use as herbicides” (DOW AGROSCIENCES LLC, priority 2013, dated 2015)
Where two headings read alike, the source gives them in different places.

Tests used:
Assay in all cases: Post-emergent Test III, herbicidal activity in wheat and barley
Type in all cases: in vivo
[1] = test system: SASKR: Russian thistle (Salsola iberica); details: 21 days after application; for pest or weed control at 35 g/ha / pest or weed control at 70 g/ha: Salsola tragus, post-emergence, 504 h, read-out: Visual Gorowth Reduction (%) 21 days After Application SASKR; for pest or weed control at 35 g/ha: 35 g ai/ha; for pest or weed control at 70 g/ha: 70 g ai/ha; for GR50 SASKR / GR80 SASKR: probit analysis; for GR50 SASKR: dose for 50 percent growth reduction; for GR80 SASKR: dose for 80 percent growth reduction
Outline: (§1)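 Plants at the second to third true-leaf stage, grown in a greenhouse at about 18/17 °C with a 14 h photoperiod, were sprayed post-emergence at 187 L/ha with the high rate and ½× to 1/16× serial dilutions in an acetone/DMSO/crop-oil/surfactant carrier. Injury was rated visually at 21 d on a 0–100% scale, and GR20–GR90 were derived by probit analysis.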

[2] = test system: VERPE: bird's-eye speedwell (veronica persica); details: for pest or weed control at 35 g/ha / pest or weed control at 70 g/ha / pest or weed control at 140 g/ha: Veronica persica, post-emergence, 504 h; for pest or weed control at 35 g/ha: 35 g ai/ha; for pest or weed control at 70 g/ha: 70 g ai/ha; for GR50 VERPE / GR80 VERPE: probit analysis; for pest or weed control at 140 g/ha: 140 g ai/ha
Outline: as §1

[3] = test system: ALOMY: black-grass (Alopecurus myosuroides); details: for pest or weed control at 35 g/ha / pest or weed control at 70 g/ha / pest or weed control at 140 g/ha: Alopecurus myosuroides, post-emergence, 504 h, read-out: Visual Growth Reduction (%) 21 Days After Application ALOMY; for pest or weed control at 35 g/ha: 35 g ai/ha; for pest or weed control at 70 g/ha: 70 g ai/ha; for pest or weed control at 140 g/ha: 140 g ai/ha; for GR50 ALOMY / GR80 ALOMY: probit analysis, 21 days after application; for GR50 ALOMY: dose for growth reduction of 50 percent; for GR80 ALOMY: dose for growth reduction of 80 percent
Outline: as §1

[4] = test system: BROTE: downy brome (Bromus tectorum); details: for pest or weed control at 35 g/ha / pest or weed control at 70 g/ha / pest or weed control at 140 g/ha: Bromus tectorum, post-emergence, 504 h, read-out: Visual Growth Reduction (%) 21 Days After Application BROTE; for pest or weed control at 35 g/ha: 35 g ai/ha; for pest or weed control at 70 g/ha: 70 g ai/ha; for pest or weed control at 140 g/ha: 140 g ai/ha; for GR50 BROTE / GR80 BROTE: probit analysis, 21 days after application; for GR50 BROTE: dose for growth reduction of 50 percent; for GR80 BROTE: dose for growth reduction of 80 percent
Outline: as §1

[5] = test system: PAPRH: common poppy (Papaver rhoeas); details: for pest or weed control at 35 g/ha / pest or weed control at 70 g/ha / pest or weed control at 140 g/ha: Papaver rhoeas, post-emergence, 504 h, read-out: Visual Growth Reduction (%) 21 Days After Application PAPRH; for pest or weed control at 35 g/ha: 35 g ai/ha; for pest or weed control at 70 g/ha: 70 g ai/ha; for pest or weed control at 140 g/ha: 140 g ai/ha; for GR50 PAPRH / GR80 PAPRH: probit analysis, 21 days after application; for GR50 PAPRH: dose for growth reduction of 50 percent; for GR80 PAPRH: dose for growth reduction of 80 percent
Outline: as §1

[6] = test system: PHAMI: lesser canary grass (Phalaris minor); details: for pest or weed control at 35 g/ha / pest or weed control at 70 g/ha / pest or weed control at 140 g/ha: Phalaris minor, post-emergence, 504 h, read-out: Visual Growth Reduction (%) 21 Days After Application PHAMI; for pest or weed control at 35 g/ha: 35 g ai/ha; for pest or weed control at 70 g/ha: 70 g ai/ha; for pest or weed control at 140 g/ha: 140 g ai/ha; for GR50 PHAMI / GR80 PHAMI: probit analysis, 21 days after application; for GR50 PHAMI: dose for growth reduction of 50 percent; for GR80 PHAMI: dose for growth reduction of 80 percent
Outline: as §1

[7] = test system: STEME: common chickweed (Stellaria media); details: for pest or weed control at 35 g/ha / pest or weed control at 70 g/ha / pest or weed control at 140 g/ha: Stellaria media, post-emergence, 504 h, read-out: Visual Growth Reduction (%) 21 Days After Application STEME; for pest or weed control at 35 g/ha: 35 g ai/ha; for pest or weed control at 70 g/ha: 70 g ai/ha; for pest or weed control at 140 g/ha: 140 g ai/ha; for GR50 STEME / GR80 STEME: probit analysis, 21 days after application; for GR50 STEME: dose for growth reduction of 50 percent; for GR80 STEME: dose for growth reduction of 80 percent
Outline: as §1

[8] = 21 days after application, read-out: Visual Gorowth Reduction (%) 21 days After Application VERPE
[9] = dose for 50 percent growth reduction, 21 days after application
[10] = dose for 80 percent growth reduction, 21 days after application
[11] = read-out: Visual Growth Reduction (%) 21 Days After Application VERPE
[12] = dose for growth reduction of 50 percent, 21 days after application
[13] = dose for growth reduction of 80 percent, 21 days after application

SMILES	pest or weed control at 35 g/ha [3] [%]	pest or weed control at 70 g/ha [3] [%]	pest or weed control at 140 g/ha [3] [%]	GR50 ALOMY [3] [g ai/ha]	GR80 ALOMY [3] [g ai/ha]	pest or weed control at 35 g/ha [4] [%]	pest or weed control at 70 g/ha [4] [%]	pest or weed control at 140 g/ha [4] [%]	GR50 BROTE [4] [g ai/ha]	GR80 BROTE [4] [g ai/ha]	pest or weed control at 35 g/ha [5] [%]	pest or weed control at 70 g/ha [5] [%]	pest or weed control at 140 g/ha [5] [%]	GR50 PAPRH [5] [g ai/ha]	GR80 PAPRH [5] [g ai/ha]	pest or weed control at 35 g/ha [2, 11] [%]	pest or weed control at 70 g/ha [2, 11] [%]	pest or weed control at 140 g/ha [2, 11] [%]	GR50 VERPE [2, 12] [g ai/ha]	GR80 VERPE [2, 13] [g ai/ha]	also measured
C=Cc1c(C(=O)O)nc(-c2ccc(C(F)(F)F)c(F)c2)c(F)c1N [Compound 86]																					pest or weed control at 35 g/ha [1]: 60 to 74%; pest or weed control at 70 g/ha [1]: 75 to 84%; GR50 SASKR [1]: 18 g ai/ha; GR80 SASKR [1]: 66 g ai/ha; pest or weed control at 35 g/ha [2, 8]: 85 to 94%; pest or weed control at 70 g/ha [2, 8]: 85 to 94%; GR50 VERPE [2, 9]: 15 g ai/ha; GR80 VERPE [2, 10]: 34 g ai/ha
Nc1c(F)c(-c2cc(F)c(I)cc2F)nc(C(=O)O)c1Cl [Compound 69]																					pest or weed control at 35 g/ha [1]: 85 to 94%; pest or weed control at 70 g/ha [1]: 85 to 94%; GR50 SASKR [1]: 7 g ai/ha; GR80 SASKR [1]: 29 g ai/ha; pest or weed control at 35 g/ha [2, 8]: 85 to 94%; pest or weed control at 70 g/ha [2, 8]: 95 to 100%; GR50 VERPE [2, 9]: 1 g ai/ha; GR80 VERPE [2, 10]: 4 g ai/ha
C=Cc1c(C(=O)O)nc(-c2ccc(Cl)c(F)c2)c(F)c1N [Compound 214]	30 to 44	45 to 59	30 to 44	95	>140	0 to 29	0 to 29	0 to 29	>140	>140											
COC(=O)c1nc(-c2ccc(Br)c(F)c2F)c(F)c(N)c1Cl [Compound 109, methyl 4-amino-6-(4-bromo-2,3-difluorophenyl)-3-chloro-5-fluoropicolinate]	60 to 74	75 to 84		22	88	75 to 84	85 to 94		14	41											
Nc1c(F)c(-c2ccc(Br)c(F)c2F)nc(C(=O)O)c1Cl [Compound 147]	60 to 74	85 to 94	85 to 94	20	47	75 to 84	85 to 94	85 to 94	6	28											
N#Cc1ccc(-c2nc(C(=O)O)c(Cl)c(N)c2F)cc1 [Compound 39]	0 to 29	45 to 59	45 to 59	111	>140	0 to 29	0 to 29	0 to 29			95 to 100	95 to 100	95 to 100	0	0	85 to 94	85 to 94	95 to 100	1	12	pest or weed control at 35 g/ha [6]: 0 to 29%; pest or weed control at 70 g/ha [6]: 30 to 44%; pest or weed control at 140 g/ha [6]: 45 to 59%; GR50 PHAMI [6]: 118 g ai/ha; GR80 PHAMI [6]: >140 g ai/ha; pest or weed control at 35 g/ha [7]: 0 to 29%; pest or weed control at 70 g/ha [7]: 30 to 44%; pest or weed control at 140 g/ha [7]: 45 to 59%; GR50 STEME [7]: 111 g ai/ha; GR80 STEME [7]: >140 g ai/ha
COC(=O)c1nc(-c2ccc(Br)cc2)c(F)c(N)c1Cl [Compound 138, Methyl 4-amino-6-(4-bromophenyl)-3-chloro-5-fluoropicolinate]	75 to 84	85 to 94	95 to 100	11	30	75 to 84	85 to 94	85 to 94	12	42	95 to 100	95 to 100	95 to 100	1	1	60 to 74	85 to 94	85 to 94	15	49	pest or weed control at 35 g/ha [6]: 45 to 59%; pest or weed control at 70 g/ha [6]: 75 to 84%; pest or weed control at 140 g/ha [6]: 85 to 94%; GR50 PHAMI [6]: 31 g ai/ha; GR80 PHAMI [6]: 78 g ai/ha; pest or weed control at 35 g/ha [7]: 30 to 44%; pest or weed control at 70 g/ha [7]: 30 to 44%; pest or weed control at 140 g/ha [7]: 45 to 59%; GR50 STEME [7]: 125 g ai/ha; GR80 STEME [7]: >140 g ai/ha
COC(=O)c1nc(-c2ccc(OC(F)F)cc2)c(F)c(N)c1Cl [Compound 85]	0 to 29	0 to 29	0 to 29	>140	>140	0 to 29	0 to 29	0 to 29	>140	>140	85 to 94	95 to 100	95 to 100	1	3	30 to 44	45 to 59	60 to 74	90	>140	pest or weed control at 35 g/ha [6]: 0 to 29%; pest or weed control at 70 g/ha [6]: 0 to 29%; pest or weed control at 140 g/ha [6]: 0 to 29%; GR50 PHAMI [6]: >140 g ai/ha; GR80 PHAMI [6]: >140 g ai/ha; pest or weed control at 35 g/ha [7]: 0 to 29%; pest or weed control at 70 g/ha [7]: 0 to 29%; pest or weed control at 140 g/ha [7]: 0 to 29%; GR50 STEME [7]: 57 g ai/ha; GR80 STEME [7]: 123 g ai/ha
COC(=O)c1nc(-c2ccc(C(F)F)cc2)c(F)c(N)c1Cl [Compound 209]	0 to 29	0 to 29		>140	>140	0 to 29	30 to 44		88	>140											
